Results published in PubChem BioAssay (NCI).
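Protocol summary: plate cells (96-well), add compound at 5 concentrations, incubate 48 h, interpolate endpoints linearly. The concentration for full growth arrest is given as TGI.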

Key:
Assay in all cases: growth of human tumour cells (NCI), 48 h
TK-10 renal = test system: TK-10 renal
MALME-3M melanoma = test system: MALME-3M melanoma
OVCAR-3 ovarian = test system: OVCAR-3 ovarian
OVCAR-5 ovarian = test system: OVCAR-5 ovarian
HCT-15 colon = test system: HCT-15 colon
HOP-62 NSCLC = test system: HOP-62 NSCLC
U251 CNS = test system: U251 CNS
UACC-257 melanoma = test system: UACC-257 melanoma
SN12C renal = test system: SN12C renal
DLD-1 colon = test system: DLD-1 colon
DMS 114 small cell lung = test system: DMS 114 small cell lung
ACHN renal = test system: ACHN renal
SK-OV-3 ovarian = test system: SK-OV-3 ovarian
SF-268 CNS = test system: SF-268 CNS
UACC-62 melanoma = test system: UACC-62 melanoma
RPMI-8226 leukemia = test system: RPMI-8226 leukemia
EKVX NSCLC = test system: EKVX NSCLC
SW-620 colon = test system: SW-620 colon
HCC-2998 colon = test system: HCC-2998 colon
A549 NSCLC = test system: A549 NSCLC
CAKI-1 renal = test system: CAKI-1 renal
SNB-19 CNS = test system: SNB-19 CNS
UO-31 renal = test system: UO-31 renal
XF 498 CNS = test system: XF 498 CNS
HOP-92 NSCLC = test system: HOP-92 NSCLC
DMS 273 small cell lung = test system: DMS 273 small cell lung
IGROV1 ovarian = test system: IGROV1 ovarian
SNB-78 CNS = test system: SNB-78 CNS
KM12 colon = test system: KM12 colon
HCT-116 colon = test system: HCT-116 colon
CCRF-CEM leukemia = test system: CCRF-CEM leukemia
LXFL 529 NSCLC = test system: LXFL 529 NSCLC
M19-MEL melanoma = test system: M19-MEL melanoma
SF-295 CNS = test system: SF-295 CNS
A498 renal = test system: A498 renal
NCI-H460 lung = test system: NCI-H460 lung
HT29 colon = test system: HT29 colon
SK-MEL-5 melanoma = test system: SK-MEL-5 melanoma
SF-539 CNS = test system: SF-539 CNS
KM20L2 colon = test system: KM20L2 colon
OVCAR-8 ovarian = test system: OVCAR-8 ovarian
K-562 leukemia = test system: K-562 leukemia
COLO 205 colon = test system: COLO 205 colon
OVCAR-4 ovarian = test system: OVCAR-4 ovarian
SK-MEL-2 melanoma = test system: SK-MEL-2 melanoma
NCI-H23 lung = test system: NCI-H23 lung
SNB-75 CNS = test system: SNB-75 CNS
HL-60(TB) leukemia = test system: HL-60(TB) leukemia
SR leukemia = test system: SR leukemia
SK-MEL-28 melanoma = test system: SK-MEL-28 melanoma
MOLT-4 leukemia = test system: MOLT-4 leukemia
NCI-H522 lung = test system: NCI-H522 lung
M14 melanoma = test system: M14 melanoma
786-0 renal = test system: 786-0 renal
NCI-H226 lung = test system: NCI-H226 lung
HOP-18 NSCLC = test system: HOP-18 NSCLC
LOX IMVI melanoma = test system: LOX IMVI melanoma

Cn1c(=O)c2nc(N3CCOCC3)cnc2n(C)c1=O
TGI (TK-10 renal): > 100 µM | TGI (MALME-3M melanoma): > 100 µM | TGI (OVCAR-3 ovarian): > 100 µM | TGI (OVCAR-5 ovarian): > 100 µM | TGI (HCT-15 colon): > 100 µM | TGI (HOP-62 NSCLC): > 100 µM | TGI (U251 CNS): > 100 µM | TGI (UACC-257 melanoma): > 100 µM | TGI (SN12C renal): > 100 µM | TGI (DLD-1 colon): > 100 µM | TGI (DMS 114 small cell lung): > 100 µM | TGI (ACHN renal): > 100 µM | TGI (SK-OV-3 ovarian): > 100 µM | TGI (SF-268 CNS): > 100 µM | TGI (UACC-62 melanoma): > 100 µM | TGI (RPMI-8226 leukemia): > 100 µM | TGI (EKVX NSCLC): > 100 µM | TGI (SW-620 colon): > 100 µM | TGI (HCC-2998 colon): > 100 µM | TGI (A549 NSCLC): > 100 µM | TGI (CAKI-1 renal): > 100 µM | TGI (SNB-19 CNS): > 100 µM | TGI (UO-31 renal): > 100 µM | TGI (XF 498 CNS): > 100 µM | TGI (HOP-92 NSCLC): > 100 µM | TGI (DMS 273 small cell lung): > 100 µM | TGI (IGROV1 ovarian): > 100 µM | TGI (SNB-78 CNS): > 100 µM | TGI (KM12 colon): > 100 µM | TGI (HCT-116 colon): > 100 µM | TGI (CCRF-CEM leukemia): > 100 µM | TGI (LXFL 529 NSCLC): > 100 µM | TGI (M19-MEL melanoma): > 100 µM | TGI (SF-295 CNS): > 100 µM | TGI (A498 renal): > 100 µM | TGI (NCI-H460 lung): > 100 µM | TGI (HT29 colon): > 100 µM | TGI (SK-MEL-5 melanoma): > 100 µM | TGI (SF-539 CNS): > 100 µM | TGI (KM20L2 colon): > 100 µM | TGI (OVCAR-8 ovarian): > 100 µM | TGI (K-562 leukemia): > 100 µM | TGI (COLO 205 colon): > 100 µM | TGI (OVCAR-4 ovarian): > 100 µM | TGI (SK-MEL-2 melanoma): > 100 µM | TGI (NCI-H23 lung): > 100 µM | TGI (SNB-75 CNS): > 100 µM | TGI (HL-60(TB) leukemia): > 100 µM | TGI (SR leukemia): > 100 µM | TGI (SK-MEL-28 melanoma): > 100 µM | TGI (MOLT-4 leukemia): > 100 µM | TGI (NCI-H522 lung): > 100 µM | TGI (M14 melanoma): > 100 µM

COc1ccc(OC)c(NC(=O)C2=C(C)NC(C)=C(C(=O)Nc3cc(OC)ccc3OC)C2c2ccco2)c1
TGI (TK-10 renal): > 100 µM | TGI (MALME-3M melanoma): > 100 µM | TGI (OVCAR-3 ovarian): > 100 µM | TGI (OVCAR-5 ovarian): > 100 µM | TGI (HCT-15 colon): > 100 µM | TGI (HOP-62 NSCLC): > 100 µM | TGI (786-0 renal): > 100 µM | TGI (U251 CNS): > 100 µM | TGI (SN12C renal): > 100 µM | TGI (DLD-1 colon): > 100 µM | TGI (DMS 114 small cell lung): > 100 µM | TGI (ACHN renal): > 100 µM | TGI (SK-OV-3 ovarian): > 100 µM | TGI (SF-268 CNS): > 100 µM | TGI (UACC-62 melanoma): > 100 µM | TGI (RPMI-8226 leukemia): > 100 µM | TGI (EKVX NSCLC): > 100 µM | TGI (SW-620 colon): > 100 µM | TGI (A549 NSCLC): > 100 µM | TGI (CAKI-1 renal): > 100 µM | TGI (SNB-19 CNS): > 100 µM | TGI (UO-31 renal): > 100 µM | TGI (XF 498 CNS): > 100 µM | TGI (HOP-92 NSCLC): > 100 µM | TGI (DMS 273 small cell lung): > 100 µM | TGI (IGROV1 ovarian): > 100 µM | TGI (SNB-78 CNS): > 100 µM | TGI (KM12 colon): > 100 µM | TGI (HCT-116 colon): > 100 µM | TGI (CCRF-CEM leukemia): > 100 µM | TGI (LXFL 529 NSCLC): > 100 µM | TGI (NCI-H226 lung): > 100 µM | TGI (M19-MEL melanoma): > 100 µM | TGI (A498 renal): > 100 µM | TGI (NCI-H460 lung): > 100 µM | TGI (HT29 colon): > 100 µM | TGI (SK-MEL-5 melanoma): > 100 µM | TGI (SF-539 CNS): > 100 µM | TGI (KM20L2 colon): > 100 µM | TGI (OVCAR-8 ovarian): > 100 µM | TGI (K-562 leukemia): > 100 µM | TGI (COLO 205 colon): > 100 µM | TGI (SK-MEL-2 melanoma): > 100 µM | TGI (NCI-H23 lung): > 100 µM | TGI (SNB-75 CNS): > 100 µM | TGI (SR leukemia): > 100 µM | TGI (MOLT-4 leukemia): > 100 µM | TGI (NCI-H522 lung): > 100 µM | TGI (M14 melanoma): > 100 µM

COC1CC2C3/C(=N/Nc4ccc([N+](=O)[O-])cc4[N+](=O)[O-])CCC2(C)C3C1 (stereo unspecified)
TGI (TK-10 renal): > 100 µM | TGI (MALME-3M melanoma): > 10 µM | TGI (OVCAR-3 ovarian): > 10 µM | TGI (OVCAR-5 ovarian): > 10 µM | TGI (HCT-15 colon): > 100 µM | TGI (HOP-62 NSCLC): > 10 µM | TGI (786-0 renal): > 10 µM | TGI (U251 CNS): > 10 µM | TGI (UACC-257 melanoma): > 100 µM | TGI (SN12C renal): > 10 µM | TGI (DLD-1 colon): > 10 µM | TGI (DMS 114 small cell lung): > 100 µM | TGI (ACHN renal): > 10 µM | TGI (SK-OV-3 ovarian): > 10 µM | TGI (SF-268 CNS): > 100 µM | TGI (UACC-62 melanoma): > 10 µM | TGI (RPMI-8226 leukemia): > 100 µM | TGI (SW-620 colon): > 10 µM | TGI (HCC-2998 colon): > 10 µM | TGI (A549 NSCLC): > 100 µM | TGI (CAKI-1 renal): > 10 µM | TGI (SNB-19 CNS): > 10 µM | TGI (HOP-18 NSCLC): > 10 µM | TGI (UO-31 renal): > 10 µM | TGI (XF 498 CNS): > 100 µM | TGI (HOP-92 NSCLC): > 10 µM | TGI (DMS 273 small cell lung): > 10 µM | TGI (IGROV1 ovarian): > 10 µM | TGI (KM12 colon): > 100 µM | TGI (HCT-116 colon): > 100 µM | TGI (LXFL 529 NSCLC): > 10 µM | TGI (LOX IMVI melanoma): > 10 µM | TGI (NCI-H226 lung): > 10 µM | TGI (M19-MEL melanoma): > 10 µM | TGI (SF-295 CNS): > 10 µM | TGI (A498 renal): > 10 µM | TGI (NCI-H460 lung): > 100 µM | TGI (HT29 colon): > 10 µM | TGI (SK-MEL-5 melanoma): > 10 µM | TGI (SF-539 CNS): > 10 µM | TGI (KM20L2 colon): > 10 µM | TGI (OVCAR-8 ovarian): > 100 µM | TGI (K-562 leukemia): > 100 µM | TGI (COLO 205 colon): > 10 µM | TGI (OVCAR-4 ovarian): > 10 µM | TGI (SK-MEL-2 melanoma): > 10 µM | TGI (NCI-H23 lung): > 10 µM | TGI (SNB-75 CNS): > 10 µM | TGI (HL-60(TB) leukemia): > 100 µM | TGI (SR leukemia): > 100 µM | TGI (SK-MEL-28 melanoma): > 100 µM | TGI (MOLT-4 leukemia): > 100 µM | TGI (NCI-H522 lung): > 10 µM | TGI (M14 melanoma): > 10 µM
